Assay results published in patent US8753691B2, “Antiviral colloidal silver composition” (priority 1999, dated 2014).

Test system: Mycobacterium bovis BCG (TMC 1028)
Type: cell-based

## Oc1ccccc1 [phenol]
  log reduction (phenol resistance): ≈ 1.81
